Source: paper PMC8434415, “Chromone Derivatives with α-Glucosidase Inhibitory Activity from the Marine Fungus Penicillium thomii Maire” (Molecules, 2021)

Columns and labels:
[1] = tested on: α-glucosidase; design: method as in PMID 25044593; conditions: cited from earlier work
[2] = target: T1, α-glucosidase from Saccharomyes cerevisiae (Saccharomyces cerevisiae, UniProt P53341); assay: α-glucosidase inhibitory assay (PNPG substrate); format: biochemical; conditions: for inhibition at 667 µM: compound at 667 μM; for IC50: tested between 0.2 and 2 mM, three replicates
T1 construct: purchased Sigma-Aldrich (St. Louis, MO, USA)
Experimental: The α-glucosidase inhibitory effect was performed as follows. The 0.2 U of α-glucosidase from Saccharomyes cerevisiae, purchased from Sigma-Aldrich (St. Louis, MO, USA), was diluted to 0.067 M phosphate buffer consisting of Na2HPO4·12H2O and KH2PO4 (pH 6.8). The assay was conducted in a 60 μL reaction system containing 20 μL of diluted enzyme solution and 20 μL of DMSO or sample (dissolved in DMSO). After 10 min of incubation in the 96-well plates at 37 °C, 20 μL of 4 mM PNPG (4-nitrophenyl-α-D-glucopyranoside, Aladdin, Shanghai, China) was added as substrate to start the enzymatic reaction. The plate was incubated for an additional 20 min at 37 °C, and the reaction was quenched by adding 60 μL of 0.2 M Na2CO3. The final concentrations of tested compounds were between 0.2 and 2 mM. The optical density (OD) was measured at an absorbance wavelength of 405 nm using a Microplate Reader (Tecan, Switzerland). […] Percent inhibition was calculated by the following equation: Inhibition (%) = ((Absorbance of control − Absorbance of test)/Absorbance of control)); IC50 concentrations are calculated using concentration vs. percent inhibition values.

[3] = DPPH radical scavenging (antioxidant) test; conditions: for Antioxidant % Inhibition (1000 μM): compound at 1000 μM
Experimental: The DPPH scavenging was assayed following the procedures in our recent published paper. The DPPH radical scavenging test was performed in 96-well microplates. Then, 20 μL of samples at a concentration of 10 mM in MeOH were added to 180 μL (150 μmol/L) DPPH solution. After 30 min of light avoidance, absorbance at 517 nm using a Microplate Reader (Tecan, Switzerland) was measured and the percentage of activity was calculated. All assays were performed in three replicates, and vitamin C was used as a positive control. Percent inhibition was calculated by the following equation: Inhibition (%) = ((Absorbance of control − Absorbance of test)/Absorbance of control)); IC50 concentrations are calculated using concentration vs. percent inhibition values.

[4] = tested on: several carcinoma cell lines; conditions: cited from earlier work
[5] = target: liver X receptor α; design: method as in PMID 33932772; conditions: read-out: dissociation equilibrium constant; cited from earlier work

T1 sequence (P53341 whole entry): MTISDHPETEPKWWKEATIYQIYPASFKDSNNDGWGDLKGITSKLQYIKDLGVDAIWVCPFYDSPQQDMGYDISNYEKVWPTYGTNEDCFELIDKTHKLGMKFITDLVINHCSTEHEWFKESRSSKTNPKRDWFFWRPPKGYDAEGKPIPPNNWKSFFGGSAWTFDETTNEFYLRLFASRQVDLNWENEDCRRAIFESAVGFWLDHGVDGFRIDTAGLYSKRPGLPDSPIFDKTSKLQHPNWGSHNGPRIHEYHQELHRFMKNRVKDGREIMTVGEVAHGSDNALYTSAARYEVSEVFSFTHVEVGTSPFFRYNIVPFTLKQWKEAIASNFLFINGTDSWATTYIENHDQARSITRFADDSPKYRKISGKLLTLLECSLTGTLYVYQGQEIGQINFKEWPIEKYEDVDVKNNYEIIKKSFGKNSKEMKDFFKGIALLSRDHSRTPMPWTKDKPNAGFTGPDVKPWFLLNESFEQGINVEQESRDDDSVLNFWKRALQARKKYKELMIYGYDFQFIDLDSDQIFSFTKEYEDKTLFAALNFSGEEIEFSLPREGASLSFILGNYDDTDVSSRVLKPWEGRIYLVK

For `COc1cc(OC)c2c(=O)cc(CCCC(=O)O)oc2c1` [4-(5,7-dimethoxy-4-oxo-4H-chromen-2-yl)butanoic acid], the “inhibitory activity on α-glucosidase (in words)” value [1] is given as “moderate inhibitory activity”.
Compound `C[C@H]1O[C@H](O[C@H]2[C@H](O)[C@@H](O)[C@@H](O[C@H]3[C@H](O)[C@@H](O)C(O)O[C@@H]3CO)O[C@@H]2CO)[C@H](O)[C@@H](O)[C@@H]1N[C@H]1C=C(CO)[C@@H](O)[C@H](O)[C@H]1O` (some centres unmarked) [Acarbose, acarbose, reference compound] has an inhibition at 667 µM [2] of 27.7%.
For `COc1cc(O)c2c(=O)cc(CCC[C@@H]3CCC(=O)O3)oc2c1` [Compound 1, Penithochromone M], the inhibition at 667 µM [2] was -3.43% and the “Antioxidant % Inhibition (1000 μM)” value [3] was 7.24%.
In the case of `O=C(O)CCCCC(O)Cc1cc(=O)c2c(O)cc(O)cc2o1` (centres unmarked) [Compound 2, Penithochromone N], the inhibition at 667 µM [2] is reported as 15.1%, the IC50 [3] is reported as 1970 ± 156 µM and the “Antioxidant % Inhibition (1000 μM)” value [3] is reported as 35.7%.
For `COC(=O)CCCCC(O)Cc1cc(=O)c2c(O)cc(OC)cc2o1` (centres unmarked) [Compound 3, Penithochromone O], the inhibition at 667 µM [2] was 23.8% and the “Antioxidant % Inhibition (1000 μM)” value [3] was 20.4%.
For `COc1cc(OC)c2c(=O)cc(CCCCC(O)CC(=O)O)oc2c1` (centres unmarked) [Compound 4, Penithochromone P], the inhibition at 667 µM [2] was -9.72% and the “Antioxidant % Inhibition (1000 μM)” value [3] was 12.2%.
For `COC(=O)CC(O)CCCCc1cc(=O)c2c(OC)cc(OC)cc2o1` (centres unmarked) [Compound 5, Penithochromone Q], the inhibition at 667 µM [2] was 1.41% and the “Antioxidant % Inhibition (1000 μM)” value [3] was 11.2%.
In the case of `O=C(O)CC(O)CCCCc1cc(=O)c2c(O)cc(O)cc2o1` (centres unmarked) [Compound 6, Penithochromone R], the inhibition at 667 µM [2] is reported as 27.3%, the IC50 [2] is reported as 842 ± 11 µM and the “Antioxidant % Inhibition (1000 μM)” value [3] is reported as 33.8%.
For `COc1cc(O)c2c(=O)cc(CC(O)CCCCCCC(=O)O)oc2c1` (centres unmarked) [Compound 7, Penithochromone S], the inhibition at 667 µM [2] was 25.2%, the IC50 [2] was 917 ± 8 µM and the “Antioxidant % Inhibition (1000 μM)” value [3] was 23.6%.
In the case of `COc1cc(O)c2c(=O)cc(CC(O)CCCC/C=C/C(=O)O)oc2c1` (centres unmarked) [Compound 8, Penithochromone T], the inhibition at 667 µM [2] is reported as 41.7%, the IC50 [2] is reported as 1020 ± 22 µM and the “Antioxidant % Inhibition (1000 μM)” value [3] is reported as 19.3%.
For `COc1cc(O)c2c(=O)cc(CCCCCCC(=O)O)oc2c1` [Compound 9, penithochromone C], the inhibition at 667 µM [2] was 40.2%, the IC50 [2] was 688 ± 24 µM and the “Antioxidant % Inhibition (1000 μM)” value [3] was 18.1%.
With `O=C(O)CCCCCCc1cc(=O)c2c(O)cc(O)cc2o1` [Compound 10, penithochromone A] the inhibition at 667 µM [2] was 74.7%, the IC50 [2] was 268 ± 25 µM and the “Antioxidant % Inhibition (1000 μM)” value [3] was 21.8%.
In the case of `O=C1O[C@H]([C@@H](O)CO)C(O)=C1O` [Vitamin C, vitamin C, reference compound], the IC50 [3] is reported as 26.7 µM and the “Antioxidant % Inhibition (1000 μM)” value [3] is reported as 96.4%.
For `COC(=O)[C@H](O)C[C@](O)(C(=O)OC)[C@@H]1Cc2c(oc3cc(C)cc(O)c3c2=O)S1` [oxalicumone A, oxalicumones A], the IC50 [4] is given as less than 10 µM.
For `COC(=O)[C@H](O)C[C@](O)(C(=O)OC)[C@H]1Cc2c(oc3cc(C)cc(O)c3c2=O)S1` [oxalicumone B, oxalicumones B], the IC50 [4] is given as less than 10 µM.
For `COC(=O)C(O)(C[C@@H](O)C(=O)O)[C@@H]1Cc2c(oc3cc(C)cc(O)c3c2=O)S1` (some centres unmarked) [oxalicumone D, oxalicumones D], the IC50 [4] is given as less than 10 µM.
For `COC(=O)CC(O)(C(=O)OC)[C@@H]1Cc2c(oc3cc(C)cc(O)c3c2=O)S1` (some centres unmarked) [oxalicumone E, oxalicumones E], the IC50 [4] is given as less than 10 µM.
For Pestalotiochromone A, the Kd [5] is listed as 6.2 µM.
